Our source for the IC50 values is patent US10385097B2, “Ether compounds for treatment of medical disorders” (Achillion Pharmaceuticals, Inc., priority 2015, dated 2019).

Structures are written as SMILES. A value given as a limit tells only on which side of the number the result lay.

In this assay the target is T1, Human Factor D (Homo sapiens, UniProt P00746).
T1 construct: purified from human serum; purchased Complement Technology, Inc; host or cells: human serum (natural protein, not recombinant)
As to the kind of experiment: Human Factor D Assay. It is filed as biochemical. To be noted: Table 3; Human Factor D 80 nM, substrate Z-L-Lys-SBzl; read-out: (IC50 (Stars)). On the procedure: Example 8. Human Factor D Assay
Human Factor D (purified from human serum, Complement Technology, Inc.) at 80 nM final concentration is incubated with test compound at various concentrations for 5 minutes at room temperature in 50 mM Tris, 1M NaCl, pH 7.5. A synthetic substrate Z-L-Lys-SBzl and DTNB (Ellman's reagent) are added to final concentrations of 100 μM each. Absorbance at 405 nm (A405) is recorded at 30 second intervals for 30 minutes using a microplate spectrophotometer. IC50 values are calculated by nonlinear regression of complement Factor D reaction rates as a function of test compound concentration.

T1 sequence (P00746 26-253): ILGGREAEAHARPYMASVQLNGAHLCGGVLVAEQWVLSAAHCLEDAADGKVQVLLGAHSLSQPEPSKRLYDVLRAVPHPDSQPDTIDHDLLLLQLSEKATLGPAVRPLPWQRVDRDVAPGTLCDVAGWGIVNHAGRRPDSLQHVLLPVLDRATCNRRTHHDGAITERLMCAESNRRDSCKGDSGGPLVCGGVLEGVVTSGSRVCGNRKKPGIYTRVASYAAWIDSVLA

In general, IC50 refers to the concentration that gives 50% inhibition. As for `CC(=O)c1cn(CC(=O)N2C[C@H](F)C[C@H]2C(=O)NCCc2ccccc2)c2ccc(OCS(=O)(=O)NC(C)(C)C)cc12` [Compound 132, (2S,4R)-1-(2-(3-Acetyl-5-((N-(tert-butyl)sulfamoyl)methoxy)-1H-indol-1-yl)acetyl)-4-fluoro-N-phenethylpyrrolidine-2-carboxamide], the IC50 was less than 1 µM. Take `CC(=O)c1cn(CC(=O)N2C[C@H](F)C[C@H]2C(=O)NCCc2ccccc2)c2ccc(OCS(N)(=O)=O)cc12` [Compound 133, (2S,4R)-1-(2-(3-Acetyl-5-(sulfamoylmethoxy)-1H-indol-1-yl)acetyl)-4-fluoro-N-phenethylpyrrolidine-2-carboxamide]: the IC50 lay within 1 to 10 µM. As to `CC(=O)c1cn(CC(=O)N2C[C@H](F)C[C@H]2C(=O)NCCCc2ccccc2)c2ccc(OCS(=O)(=O)NC(C)(C)C)cc12` [Compound 135, (2S,4R)-1-(2-(3-Acetyl-5-((N-(tert-butyl)sulfamoyl)methoxy)-1H-indol-1-yl)acetyl)-4-fluoro-N-(3-phenylpropyl)pyrrolidine-2-carboxamide], the 50% inhibitory concentration (IC50) was less than 1 µM.

On to `CC(=O)c1cn(CC(=O)N2C[C@H](F)C[C@H]2C(=O)NCCCc2ccccc2)c2ccc(OCS(N)(=O)=O)cc12` [Compound 136, (2S,4R)-1-(2-(3-Acetyl-5-(sulfamoylmethoxy)-1H-indol-1-yl)acetyl)-4-fluoro-N-(3-phenylpropyl)pyrrolidine-2-carboxamide], for which the IC50 was less than 1 µM. `CC(=O)c1cn(CC(=O)N2C[C@H](F)C[C@H]2C(=O)NCCCCc2ccccc2)c2ccc(OCS(=O)(=O)NC(C)(C)C)cc12` [Compound 138, (2S,4R)-1-(2-(3-Acetyl-5-((N-(tert-butyl)sulfamoyl)methoxy)-1H-indol-1-yl)acetyl)-4-fluoro-N-(4-phenylbutyl)pyrrolidine-2-carboxamide]: the IC50 is less than 1 µM. As for `CC(=O)c1cn(CC(=O)N2C[C@H](F)C[C@H]2C(=O)NCCCCc2ccccc2)c2ccc(OCS(N)(=O)=O)cc12` [Compound 139, (2S,4R)-1-(2-(3-Acetyl-5-(sulfamoylmethoxy)-1H-indol-1-yl)acetyl)-4-fluoro-N-(4-phenylbutyl)pyrrolidine-2-carboxamide], the figure is 1 to 10 µM. To `CC(=O)c1cn(CC(=O)N2C[C@H](F)C[C@H]2C(=O)NCc2cccc(Cl)c2F)c2ccc(OCS(=O)(=O)NC(C)(C)C)cc12` [Compound 140, (2S,4R)-1-(2-(3-Acetyl-5-((N-(tert-butyl)sulfamoyl)methoxy)-1H-indol-1-yl)acetyl)-N-(3-chloro-2-fluorobenzyl)-4-fluoropyrrolidine-2-carboxamide] belongs less than 1 µM; to `CC(=O)c1cn(CC(=O)N2C[C@H](F)C[C@H]2C(=O)NCc2cccc(Cl)c2F)c2ccc(OCS(N)(=O)=O)cc12` [Compound 141, (2S,4R)-1-(2-(3-Acetyl-5-(sulfamoylmethoxy)-1H-indol-1-yl)acetyl)-N-(3-chloro-2-fluorobenzyl)-4-fluoropyrrolidine-2-carboxamide], less than 1 µM. To `CCOP(=O)(COc1ccc2c(c1)c(C(C)=O)cn2CC(=O)N1C[C@H](F)C[C@H]1C(=O)NCc1ccccc1)OCC` [Compound 144, Diethyl (((3-acetyl-1-(2-((2S,4R)-2-(benzylcarbamoyl)-4-fluoropyrrolidin-1-yl)-2-oxoethyl)-1H-indol-5-yl)oxy)methyl)phosphonate] belongs less than 1 µM; to `CC(=O)c1cn(CC(=O)N2C[C@H](F)C[C@H]2C(=O)NCc2ccccc2)c2ccc(OCP(=O)(O)O)cc12` [Compound 145, (((3-Acetyl-1-(2-((2S,4R)-2-(benzylcarbamoyl)-4-fluoropyrrolidin-1-yl)-2-oxoethyl)-1H-indol-5-yl)oxy)methyl)phosphonic acid], 1 to 10 µM.

`CCOP(=O)(COc1ccc2c(c1)c(C(C)=O)cn2CC(=O)N1C[C@H](F)C[C@H]1C(=O)NCCc1ccccc1)OCC` [Compound 146, Diethyl (((3-acetyl-1-(2-((2S,4R)-4-fluoro-2-(phenethylcarbamoyl)pyrrolidin-1-yl)-2-oxoethyl)-1H-indol-5-yl)oxy)methyl)phosphonate]: the IC50 was less than 1 µM. To `CC(=O)c1cn(CC(=O)N2C[C@H](F)C[C@H]2C(=O)NCCc2ccccc2)c2ccc(OCP(=O)(O)O)cc12` [Compound 147, (((3-Acetyl-1-(2-((2S,4R)-4-fluoro-2-(phenethylcarbamoyl)pyrrolidin-1-yl)-2-oxoethyl)-1H-indol-5-yl)oxy)methyl)phosphonic acid] belongs more than 10 µM; to `CCOP(=O)(COc1ccc2c(c1)c(C(C)=O)cn2CC(=O)N1C[C@H](F)C[C@H]1C(=O)NCCCc1ccccc1)OCC` [Compound 148, diethyl (((3-acetyl-1-(2-((2S,4R)-4-fluoro-2-((3-phenylpropyl)carbamoyl)pyrrolidin-1-yl)-2-oxoethyl)-1H-indol-5-yl)oxy)methyl)phosphonate], less than 1 µM.

As to `CC(=O)c1cn(CC(=O)N2C[C@H](F)C[C@H]2C(=O)NCCCc2ccccc2)c2ccc(OCP(=O)(O)O)cc12` [Compound 149, (((3-Acetyl-1-(2-((2S,4R)-4-fluoro-2-((3-phenylpropyl)carbamoyl)pyrrolidin-1-yl)-2-oxoethyl)-1H-indol-5-yl)oxy)methyl)phosphonic acid], the IC50 is more than 10 µM. As for `CCOP(=O)(COc1ccc2c(c1)c(C(C)=O)cn2CC(=O)N1C[C@H](F)C[C@H]1C(=O)NCCCCc1ccccc1)OCC` [Compound 150, Diethyl (((3-acetyl-1-(2-((2S,4R)-4-fluoro-2-((4-phenylbutyl)carbamoyl)pyrrolidin-1-yl)-2-oxoethyl)-1H-indol-5-yl)oxy)methyl)phosphonate], the IC50 is less than 1 µM.

Take `CC(=O)c1cn(CC(=O)N2C[C@H](F)C[C@H]2C(=O)NCCCCc2ccccc2)c2ccc(OCP(=O)(O)O)cc12` [Compound 151, (((3-Acetyl-1-(2-((2S,4R)-4-fluoro-2-((4-phenylbutyl)carbamoyl)pyrrolidin-1-yl)-2-oxoethyl)-1H-indol-5-yl)oxy)methyl)phosphonic acid]: the IC50 was more than 10 µM.

Take `CCOP(=O)(COc1ccc2c(c1)c(C(C)=O)cn2CC(=O)N1C[C@H](F)C[C@H]1CCNS(=O)(=O)c1ccccc1)OCC` [Compound 158, Diethyl (((3-acetyl-1-(2-((2R,4R)-4-fluoro-2-(2-(phenylsulfonamido)ethyl)pyrrolidin-1-yl)-2-oxoethyl)-1H-indol-5-yl)oxy)methyl)phosphonate]: the IC50 was 1 to 10 µM. As for `CC(=O)c1cn(CC(=O)N2C[C@H](F)C[C@H]2CCNS(=O)(=O)c2ccccc2)c2ccc(OCP(=O)(O)O)cc12` [Compound 159, (((3-Acetyl-1-(2-((2R,4R)-4-fluoro-2-(2-(phenylsulfonamido)ethyl)pyrrolidin-1-yl)-2-oxoethyl)-1H-indol-5-yl)oxy)methyl)phosphonic acid], the figure is more than 10 µM; as for `CCOP(=O)(COc1ccc2c(c1)c(C(C)=O)cn2CC(=O)N1CC[C@H]1C(=O)Nc1cccc(C)n1)OCC` [Compound 163, Diethyl (S)-(((3-acetyl-1-(2-(2-((6-methylpyridin-2-yl)carbamoyl)azetidin-1-yl)-2-oxoethyl)-1H-indol-5-yl)oxy)methyl)phosphonate], more than 10 µM. To `CC(=O)c1cn(CC(=O)N2C[C@H](F)C[C@H]2C(=O)Nc2cncc(Br)n2)c2ccc(Oc3ncc(F)cn3)cc12` [Compound 164, (2S,4R)-1-(2-(3-Acetyl-5-((5-fluoropyrimidin-2-yl)oxy)-1H-indol-1-yl)acetyl)-N-(6-bromopyrazin-2-yl)-4-fluoropyrrolidine-2-carboxamide] belongs less than 1 µM; to `CC(=O)c1cn(CC(=O)N2[C@@H]3C[C@@H]3C[C@H]2C(=O)Nc2cncc(Br)n2)c2ccc(Oc3ncc(F)cn3)cc12` [Compound 165, (1R,3S,5R)-2-(2-(3-Acetyl-5-((5-fluoropyrimidin-2-yl)oxy)-1H-indol-1-yl)acetyl)-N-(6-bromopyrazin-2-yl)-2-azabicyclo[3.1.0]hexane-3-carboxamide], less than 1 µM. To `CC(=O)c1cn(CC(=O)N2C[C@H](F)C[C@H]2C(=O)Nc2cncc(Br)n2)c2ccc(Oc3ncc(C)cn3)cc12` [Compound 166, (2S,4R)-1-(2-(3-Acetyl-5-((5-methylpyrimidin-2-yl)oxy)-1H-indol-1-yl)acetyl)-N-(6-bromopyrazin-2-yl)-4-fluoropyrrolidine-2-carboxamide] belongs less than 1 µM; to `CC(=O)c1nn(CC(=O)N2C[C@H](F)C[C@H]2C(=O)Nc2cncc(Br)n2)c2ccc(Oc3ncc(C)cn3)cc12` [Compound 167, (2S,4R)-1-(2-(3-Acetyl-5-((5-methylpyrimidin-2-yl)oxy)-1H-indazol-1-yl)acetyl)-N-(6-bromopyrazin-2-yl)-4-fluoropyrrolidine-2-carboxamide], less than 1 µM; to `CC(=O)c1nn(CC(=O)N2C[C@H](F)C[C@H]2C(=O)Nc2cncc(Br)n2)c2ccc(Oc3nccc(C)n3)cc12` [Compound 168, (2S,4R)-1-(2-(3-Acetyl-5-((4-methylpyrimidin-2-yl)oxy)-1H-indazol-1-yl)acetyl)-N-(6-bromopyrazin-2-yl)-4-fluoropyrrolidine-2-carboxamide], less than 1 µM.

Take `CC(=O)c1nn(CC(=O)N2C[C@H](F)C[C@H]2C(=O)Nc2cccc(Br)n2)c2ccc(Oc3ncc(C)cn3)cc12` [Compound 169, (2S,4R)-1-(2-(3-Acetyl-5-((5-methylpyrimidin-2-yl)oxy)-1H-indazol-1-yl)acetyl)-N-(6-bromopyridin-2-yl)-4-fluoropyrrolidine-2-carboxamide]: the IC50 was less than 1 µM.
